A short description of data set [1]: Cell viability by MTT assay. To be noted: African green monkey, VeroE6 cells stably overexpressing TMPRSS2.
Data set [2] has as its system SARS-CoV-2. Description: Time of addition assay (whole life cycle, entry, post-entry). The class given is cell-based, SARS-CoV-2 Wk-521 strain. To be noted: 15 μM RDV, 10 μM Oxy210, 10 μM Oxy133; added 2 h post-inoculation for 21 h.
Data set [3] relates to SARS-CoV-2. Put plainly: SARS-CoV-2 infection assay, viral RNA in culture supernatant by real-time RT-PCR. The class given is cell-based, SARS-CoV-2 Wk-521 strain. To be noted: viral RNA in culture supernatant, 24 h post-inoculation, VeroE6/TMPRSS2 cells.
The subject of data set [4] is SARS-CoV-2. Description: Virus-induced cytopathic effect (CPE) viewed under a microscope. To be noted: 48 h post-inoculation; 10 μM RDV, 30 μM cholesterol, 30 μM 7-KC, 10 μM Oxy133, 10 μM Oxy210. In kind it is cell-based, SARS-CoV-2 Wk-521 strain.
For data set [5], the system named is SARS-CoV-2. Put plainly: Viral N protein by indirect immunofluorescence. To be noted: 10 μM RDV, 30 μM cholesterol, 30 μM 7-KC, 10 μM Oxy133, 10 μM Oxy210. The class given is cell-based, SARS-CoV-2 Wk-521 strain.

Data on one compound can be found in paper PMC8003796, “Identification of Anti-Severe Acute Respiratory Syndrome-Related Coronavirus 2 (SARS-CoV-2) Oxysterol Derivatives In Vitro” (International Journal of Molecular Sciences, 2021).

For `CCC(CC)COC(=O)[C@H](C)N[P@](=O)(OC[C@H]1O[C@@](C#N)(c2ccc3c(N)ncnn23)[C@H](O)[C@@H]1O)Oc1ccccc1` [RDV, remdesivir, reference compound], the 50% cytotoxic concentration (CC50) at 24 h in data set [1] is above 10 µM. Moreover, the “viral RNA, compound present post-entry (in words)” value in the data set on SARS-CoV-2 [2] is “remarkable inhibition”. Moreover, in the data set with SARS-CoV-2 [3] (Severe acute respiratory syndrome coronavirus 2, read-out: IC90 (90% maximal inhibitory concentration)), the IC90 was 2500 nM. Moreover, the IC50 in the data set with SARS-CoV-2 [3] (Severe acute respiratory syndrome coronavirus 2, read-out: IC50 (50% maximal inhibitory concentration)) stood at 1500 nM. Further, the “effect on SARS-CoV-2-induced CPE (in words)” value with SARS-CoV-2 [4] is “blocked the virus-induced CPE”. In the data set on SARS-CoV-2 [5], the “effect on virus propagation / spread of infection, N protein (in words)” value is given as “blocked”.
